Data from patent US20190175744A1, “INSULIN-INCRETIN CONJUGATES” (Merck Sharp & Dohme Corp., priority 2016, published 2019).
Like-named read-outs stand apart in the source and are kept apart here.

Assays:
human GLP1R = human GLP1R (Homo sapiens, UniProt P43220); assay: cAMP activity assay, cells expressing human GLP1R; type: cell-based
Protocol: Activity of the incretin peptides or the conjugates at the Glucagon receptor (GCGR) and GLP-1 receptor (GLP1R) may be measured in a cAMP activity assay as follows.
Peptides are dissolved in 100% DMSO and serially diluted to generate 10 point titrations. The peptide solutions are then transferred into 384-well assay plates (150 nL/well). Assay ready frozen cells expressing human GLP1R or human GCGR are suspended in growth media consisting of DMEM medium (GIBCO), 10% FBS (GIBCO), 1×NEAA(GIBCO), 1×P/S (GIBCO), 10 μg/mL Blasticidin (GIBCO) and 200 μg/mL Hygromycin (GIBCO). […] The cell suspensions (15 μL) are then added to the assay plates containing the peptide solutions (30,000 cells/well for human GCGR; 10,000 cells/well for human GLP1R). The cells are incubated for one hour at room temperature in the dark.
Production of cAMP may be determined using HitHunterr cAMPXS kits (DiscoverX) following the manufacturer's protocol. The plates are incubated for overnight at room temperature in the dark. Luminescence may be measured using an EnVision Multilabel plate reader (Perkin Elmer). Native GLP-1 and Glucagon (Bachem) may be used as control peptides. EC50 values may be calculated using uses a 4 parameter logistic fit based on the Levenberg-Marquardt algorithm.

human GCGR = target: T1, human GCGR (Homo sapiens, UniProt P47871); assay: cAMP activity assay, cells expressing human GCGR; type: cell-based; conditions: for GCGR/GLP1R ratio: Table 5, ratio of hGCGR EC50 to hGLP1R EC50;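 as to all read-outs here: cAMP production read by luminescence after one hour of peptide exposure at room temperature, EC50 from logistic curve fit, native glucagon and GLP-1 as control peptides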
T1 construct: expressed in transfected cells; grown with Blasticidin and Hygromycin
T1 sequence (P47871 26-477): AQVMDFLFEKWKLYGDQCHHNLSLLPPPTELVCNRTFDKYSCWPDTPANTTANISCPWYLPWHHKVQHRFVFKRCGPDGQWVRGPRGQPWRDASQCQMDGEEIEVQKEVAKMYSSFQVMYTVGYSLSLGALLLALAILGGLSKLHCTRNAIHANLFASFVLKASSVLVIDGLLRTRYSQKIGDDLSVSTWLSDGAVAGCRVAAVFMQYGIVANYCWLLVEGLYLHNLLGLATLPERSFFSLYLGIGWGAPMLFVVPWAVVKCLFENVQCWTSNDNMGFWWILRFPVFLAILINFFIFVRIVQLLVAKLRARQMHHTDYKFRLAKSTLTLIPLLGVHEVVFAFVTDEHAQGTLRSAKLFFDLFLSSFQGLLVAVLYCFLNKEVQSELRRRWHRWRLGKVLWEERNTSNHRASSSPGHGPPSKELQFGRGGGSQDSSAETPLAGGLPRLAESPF

Sequence of human GLP1R (P43220 24-463): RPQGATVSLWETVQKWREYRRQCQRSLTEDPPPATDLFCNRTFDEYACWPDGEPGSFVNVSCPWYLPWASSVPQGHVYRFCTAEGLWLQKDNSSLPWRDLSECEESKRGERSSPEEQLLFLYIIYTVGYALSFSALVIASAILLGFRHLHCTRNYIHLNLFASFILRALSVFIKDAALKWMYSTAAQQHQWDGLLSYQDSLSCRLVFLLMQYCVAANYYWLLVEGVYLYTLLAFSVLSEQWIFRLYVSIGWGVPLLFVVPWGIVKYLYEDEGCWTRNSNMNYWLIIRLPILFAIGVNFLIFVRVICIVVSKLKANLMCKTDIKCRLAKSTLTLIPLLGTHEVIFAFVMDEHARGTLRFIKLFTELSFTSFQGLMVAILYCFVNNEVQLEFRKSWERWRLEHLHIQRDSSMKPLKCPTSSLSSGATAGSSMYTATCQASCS

EC50 (human GLP1R; Table 5, incretin peptides, cAMP, read-out: hGLP1R EC50) [nM] | EC50 (human GCGR; Table 5, incretin peptides, cAMP, read-out: hGCGR_EC50) [nM] | SMILES | EC50 (human GLP1R) [nM] | EC50 (human GCGR) [nM] | GCGR/GLP1R ratio (human GCGR)
 |  | CCCCCCCCCCCCCCCC(=O)N[C@@H](CCC(=O)N[C@@H](CCC(=O)NCCCC[C@H](NC(=O)[C@](C)(CC(=O)O)NC(=O)[C@H](CO)NC(=O)[C@@H](NC(=O)[C@H](Cc1ccccc1)NC(=O)[C@@H](NC(=O)CNC(=O)[C@H](CCC(N)=O)NC(=O)[C@@H](CO)NC(=O)[C@@H](N)Cc1c[nH]cn1)[C@@H](C)O)[C@@H](C)O)C(=O)N[C@@H](CO)C(=O)N[C@@H](CCCCN)C(=O)N[C@@H](Cc1ccc(O)cc1)C(=O)N[C@@H](CC(C)C)C(=O)N[C@@H](CC(=O)O)C(=O)N[C@@H](CCC(=O)O)C(=O)N[C@@H](CCCNC(=N)N)C(=O)N[C@@H](C)C(=O)N[C@@H](C)C(=O)N[C@@H](CCC(N)=O)C(=O)N[C@@H](CC(=O)O)C(=O)N[C@@H](Cc1ccccc1)C(=O)N[C@H](C(=O)N[C@@H](CCCCN=[N+]=[N-])C(=O)N[C@@H](Cc1c[nH]c2ccccc12)C(=O)N[C@@H](CC(C)C)C(=O)N[C@@H](CCS(C)(=O)=O)C(=O)N[C@@H](CC(=O)O)C(=O)N[C@H](C(N)=O)[C@@H](C)O)C(C)C)C(=O)O)C(=O)O [PEP32] | 0.04 | 0.06 | 1.5
0.03 | 0.21 | CC(C)C[C@H](NC(=O)[C@H](Cc1c[nH]c2ccccc12)NC(=O)[C@H](CCC(N)=O)NC(=O)[C@@H](NC(=O)[C@H](Cc1ccccc1)NC(=O)[C@H](CC(=O)O)NC(=O)[C@H](CCC(N)=O)NC(=O)[C@H](C)NC(=O)[C@H](C)NC(=O)[C@H](CCCNC(=N)N)NC(=O)C(C)(C)NC(=O)[C@H](CC(=O)O)NC(=O)[C@H](CC(C)C)NC(=O)[C@H](Cc1ccc(O)cc1)NC(=O)[C@H](CCCCN)NC(=O)[C@H](CO)NC(=O)[C@H](Cc1ccc(O)cc1)NC(=O)[C@H](CC(=O)O)NC(=O)[C@H](CO)NC(=O)[C@@H](NC(=O)[C@H](Cc1ccccc1)NC(=O)[C@@H](NC(=O)CNC(=O)[C@H](CCC(N)=O)NC(=O)C(C)(C)NC(=O)[C@@H](N)Cc1c[nH]cn1)[C@@H](C)O)[C@@H](C)O)C(C)C)C(=O)N[C@@H](CC(C)C)C(=O)N[C@@H](CC(=O)O)C(=O)N[C@H](C(=O)N[C@@H](CCCCN)C(=O)N[C@@H](CCCCN=[N+]=[N-])C(N)=O)[C@@H](C)O [PEP18] |  |  | 6.7
 |  | CCCCCCCCCCCCCCCC(=O)N[C@@H](CCC(=O)N[C@@H](CCC(=O)NCCCC[C@H](NC(=O)[C@H](CC(=O)O)NC(=O)[C@H](CO)NC(=O)[C@@H](NC(=O)[C@H](Cc1ccccc1)NC(=O)[C@@H](NC(=O)CNC(=O)[C@H](CCC(N)=O)NC(=O)C(C)(C)NC(=O)[C@@H](N)Cc1c[nH]cn1)[C@@H](C)O)[C@@H](C)O)C(=O)N[C@@H](CO)C(=O)N[C@@H](CCCCN)C(=O)N[C@@H](Cc1ccc(O)cc1)C(=O)N[C@@H](CC(C)C)C(=O)N[C@@H](CC(=O)O)C(=O)NC(C)(C)C(=O)N[C@@H](CCCNC(=N)N)C(=O)N[C@@H](C)C(=O)N[C@@H](C)C(=O)N[C@@H](CCC(N)=O)C(=O)N[C@@H](CC(=O)O)C(=O)N[C@@H](Cc1ccccc1)C(=O)N[C@H](C(=O)N[C@@H](CCC(N)=O)C(=O)N[C@@H](Cc1c[nH]c2ccccc12)C(=O)N[C@@H](CC(C)C)C(=O)N[C@@H](CC(C)C)C(=O)N[C@@H](CC(=O)O)C(=O)N[C@H](C(=O)N[C@@H](CCCCN)C(=O)N[C@@H](CCCCN=[N+]=[N-])C(N)=O)[C@@H](C)O)C(C)C)C(=O)O)C(=O)O [PEP19] | 0.34 |  | 1.4
